Read-outs that look alike come from different tables or passages of the source.
Assays:
unstimulated blood (BL) = test: Integrated luminol-dependent chemiluminescence of unstimulated blood; type: cell-based, human; conditions: 2.5 mg/ml, mean ± SE from 16 samples
Procedure: (§1) Antioxidant activity of SDG, SECO, ED, EL and vitamin E (alpha-tochopherol phosphate) was measured using the ability of these compounds to reduce the chemiluminescence of activated PMNLs [polymorphonuclear leukocytes chemiluminescence (PMNL-CL)]. Activated polymorphonuclear leukocytes produce superoxide anion (O2^−), hydrogen peroxide (H2O2), hydroxyl radical (.OH) and singlet oxygen (^1O2). Chemiluminescence is amplified by luminol, which is converted to an excited aminophthalate ion in the presence of oxidizing species like O2^−, H2O2, .OH and ^1O2. Luminol-dependent CL reflects the amount of activated oxygen species generated from activated phagocytes, thus, this method can be used to monitor the reactive oxygen species produced by PMNLs. Agents which scavenge O2^−, H2O2, .OH and ^1O2 would reduce PMNL-CL. The SDG, SECO, ED and EL were all obtained from Agriculture and Agri-Food Canada, Saskatoon, Saskatchewan.
Venous blood from healthy subjects, after their informed consent, was collected in ethylenediamine tetraacetic acid (EDTA)-containing tubes for PMNL counts, and PMNL-CL. PMNL and WBC counts were made using Technicon H6000 system (Technicon Instruments, Tarrytown, N.Y.). PMNL-CL a measure of reactive oxygen species produced by PMNLs was measured by a method described in Prasad et al., Effect of polymorphonuclear leukocyte-derived oxygen free radicals and hypochlorous acid or cardiac function and some biochemical parameters, Am. Heart J. 119:538-550, 1990. Blood (0.05 ml) was added to a glass tube containing Hank's balanced salt solution (HBSS) buffer (pH 7.40) and luminol at a final concentration of 10^−4 M. To assess the ability of various test materials in the varying amounts (1.0, 2.5, 5.0 and 10 mg/ml) in the powder form, were each added to the test tube containing blood, shaken well and incubated for 15 minutes at room temperature. The final volume of the mixture in these tubes was 0.5 ml. All the test tubes were placed in a luminometer for 5 min at 37° C., and phagocytosis was initiated by the addition of 0.1 ml (10 mg/ml) of opsonized zymosan prepared by previously described method (Prasad et al., 1990). The chemiluminescence was monitored with an Auto Lumat, LB953 luminometer (Egg Berthold, Berthold Analytical Instrument Inc., 472 Amherst Street, Nashua, N.H., 03063) for 3 seconds every 2 or 3 minutes (depending on the sample number) for a period of 60 minutes. The integrated area under the curve gives the total luminal-dependent chemiluminescent response during the period of monitoring, which represents the oxygen derived CL. […]
The results are expressed as mean±SE and n=sample size. […]

[1] = tested on: zymosan-stimulated polymorphonuclear leukocytes; test: Luminol-dependent chemiluminescence of zymosan-stimulated PMNLs in blood (PMNL-CL); type: cell-based, human; conditions: for antioxidant potency as compared to vitamin E: ratio of inhibition of PMNL-CL at 2.5 mg/ml, relative to vitamin E; for inhibition at 1000 µg/mL / inhibition at 2500 µg/mL / inhibition at 5000 µg/mL: Homo sapiens, Leukocyte
Procedure: as §1
Venous blood from healthy subjects, after their informed consent, was collected in ethylenediamine tetraacetic acid (EDTA)-containing tubes for PMNL counts, and PMNL-CL. PMNL and WBC counts were made using Technicon H6000 system (Technicon Instruments, Tarrytown, N.Y.). PMNL-CL a measure of reactive oxygen species produced by PMNLs was measured by a method described in Prasad et al., Effect of polymorphonuclear leukocyte-derived oxygen free radicals and hypochlorous acid or cardiac function and some biochemical parameters, Am. Heart J. 119:538-550, 1990. Blood (0.05 ml) was added to a glass tube containing Hank's balanced salt solution (HBSS) buffer (pH 7.40) and luminol at a final concentration of 10^−4 M. To assess the ability of various test materials in the varying amounts (1.0, 2.5, 5.0 and 10 mg/ml) in the powder form, were each added to the test tube containing blood, shaken well and incubated for 15 minutes at room temperature. The final volume of the mixture in these tubes was 0.5 ml. All the test tubes were placed in a luminometer for 5 min at 37° C., and phagocytosis was initiated by the addition of 0.1 ml (10 mg/ml) of opsonized zymosan prepared by previously described method (Prasad et al., 1990). The chemiluminescence was monitored with an Auto Lumat, LB953 luminometer (Egg Berthold, Berthold Analytical Instrument Inc., 472 Amherst Street, Nashua, N.H., 03063) for 3 seconds every 2 or 3 minutes (depending on the sample number) for a period of 60 minutes. The integrated area under the curve gives the total luminal-dependent chemiluminescent response during the period of monitoring, which represents the oxygen derived CL. The difference in the integrated area under zymosan-activated in the absence and in the presence of various compounds under investigation is designated as particular compound inhibitable oxygen derived radical CL. The unit for chemiluminescence is in counts per minute (cpm). The integrated area under the curve is in cpm.m. The unit for chemiluminescence is cpm.m.10^−6 PMNLs because the chemiluminescence is expressed in terms of 10^−6 PMNL counts. The peak chemiluminescence is cpm 10^−6 PMNLs.
The results are expressed as mean±SE and n=sample size. One-way Analysis of Variance (ANOVA) followed by Scheffe test was used to derive differences between different groups. A “p” value of less than 0.05 was considered significant.

[2] = 1.0 mg/ml, concentration-response (FIGS. 4-8)
[3] = 2.5 mg/ml, concentration-response (FIGS. 4-8)
[4] = 5.0 mg/ml, concentration-response (FIGS. 4-8)
[5] = zymosan-stimulated, 2.5 mg/ml, comparison experiment (FIG. 3)
[6] = 10.0 mg/ml, concentration-response (FIGS. 4-8)
[7] = 2.5 mg/ml, concentration-response (FIGS. 4-8), read-out: inhibition of zymosan-stimulated PMNL-CL
[8] = zymosan-stimulated, 2.5 mg/ml, comparison experiment (FIG. 3), read-out: percentage inhibition of PMNL-CL

Row | SMILES | Integrated CL of unstimulated blood (BL) in the presence of compound (unstimulated blood (BL)) | inhibition of zymosan-stimulated PMNL-CL [1, 2] | inhibition of zymosan-stimulated PMNL-CL [1, 3] | inhibition of zymosan-stimulated PMNL-CL [1, 4] | antioxidant potency as compared to vitamin E [1] | percentage inhibition of PMNL-CL [1, 5] | effect on zymosan-stimulated PMNL-CL (in words) ([1]; 1.0 mg/ml) | inhibition of zymosan-stimulated PMNL-CL [1, 6] | inhibition at 1000 µg/mL [1, 2] | inhibition at 2500 µg/mL [1, 7] | inhibition at 5000 µg/mL [1, 4] | inhibition at 2500 µg/mL [1, 8] | antioxidant potency relative to SDG (times more potent than SDG) [1]
1 | COc1cc(C[C@@H](CO[C@@H]2O[C@H](CO)[C@@H](O)[C@H](O)[C@H]2O)[C@H](CO[C@@H]2O[C@H](CO)[C@@H](O)[C@H](O)[C@H]2O)Cc2ccc(O)c(OC)c2)ccc1O [SDG, secoisolariciresinol diglucoside, reference compound] | 2.463 ± 0.159 ×10^6 cpm · m · 10^−6 PMNLs | 24% | 30% | 48% | 1.27 times | 23.87% | – | – | – | – | – | – | –
2 | Cc1c(C)c2c(c(C)c1OP(=O)(O)O)CC[C@@](C)(CCC[C@H](C)CCC[C@H](C)CCCC(C)C)O2 [vitamin E, alpha-tochopherol phosphate, reference compound] | – | – | 17% | 88% | – | 18.75% | increase in the PMNL-CL | 97% | – | – | – | – | –
3 | OC[C@H](Cc1cccc(O)c1)[C@H](CO)Cc1cccc(O)c1 [ED, enterodiol] | 1.073 ± 0.048 ×10^6 cpm · m · 10^−6 PMNLs | – | – | – | 5.02 times | – | – | – | 82% | 96% | 95% | 94.2% | 3.95 times
4 | O=C1OC[C@H](Cc2cccc(O)c2)[C@H]1Cc1cccc(O)c1 [EL, enterolactone] | 2.177 ± 0.138 ×10^6 cpm · m · 10^−6 PMNLs | – | – | – | 4.35 times | – | – | – | 81% | 86% | 83% | 81.6% | 3.43 times
5 | COc1cc(C[C@@H](CO)[C@H](CO)Cc2ccc(O)c(OC)c2)ccc1O [SECO, secoisolariciresinol] | 0.878 ± 0.023 ×10^6 cpm · m · 10^−6 PMNLs | 78% | 93% | 99.5% | 4.86 times | 91.2% | – | 100% | – | – | – | – | 3.82 times
